Source: US8247420B2, “Compositions, synthesis, and methods of using quinolinone based atypical antipsychotic agents” (Reviva Pharmaceuticals, Inc., priority 2007, dated 2012)
Where a name gives a salt, the structure may show the parent alone.

What was measured:
[1] = target: T1, Dopamine, D2S (human recombinant) (Homo sapiens, UniProt P14416); assay: Dopamine, D2S (human recombinant) radioligand binding assay ([3H]Spiperone); settings: human recombinant in CHO cells
T1 construct: expressed in transfected cells; host or cells: CHO cells
T1 sequence (P14416 1-414 isoform P14416-2): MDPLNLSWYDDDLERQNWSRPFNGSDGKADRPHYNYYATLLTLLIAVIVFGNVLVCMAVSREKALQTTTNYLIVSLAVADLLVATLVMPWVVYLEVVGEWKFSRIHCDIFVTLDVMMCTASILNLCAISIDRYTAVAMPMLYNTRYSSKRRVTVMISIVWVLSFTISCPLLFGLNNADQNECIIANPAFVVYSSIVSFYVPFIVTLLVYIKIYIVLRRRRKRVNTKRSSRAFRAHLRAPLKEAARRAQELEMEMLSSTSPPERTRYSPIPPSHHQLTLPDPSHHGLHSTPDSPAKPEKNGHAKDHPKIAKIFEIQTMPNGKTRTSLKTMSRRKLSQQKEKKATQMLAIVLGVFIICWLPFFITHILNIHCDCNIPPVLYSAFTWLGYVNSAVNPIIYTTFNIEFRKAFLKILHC
Protocol: The reactions were carried out in 50 mM TRIS-HCl (pH 7.4) containing 120 mM NaCl, 5 mM KCl, 5 mM MgCl2, 1 mM EDTA for 60 minutes at 25 C. The reaction was terminated by rapid vacuum filtration onto glass fiber filters. Radioactivity trapped onto the filters was determined and compared to control values in order to ascertain any interactions of test compounds with the cloned dopamine-D2 short binding site (Literature Reference: Jarvis, K. R. et al. Journal of Receptor Research 1993, 13(1-4), 573-590; Gundlach, A. L. et al. Life Sciences 1984, 35, 1981-1988.)
(§1) The radioligand binding assays for dopamine-D2S and serotonin-5HT1A were carried out at six different concentrations and the test concentrations were 1 nM, 5 nM, 10 nm 50 nM, 100 nM and 500 nM. The radioligand binding assays for serotonin-5HT2A were carried out at seven different concentrations and the test concentrations were 5 nM, 10 nM, 50 nM, 100 nM, 500 nM, 1 uM, and 300 uM.

[2] = target: T2, Serotonin, 5HT1A (human recombinant) (Homo sapiens, UniProt P08908); assay: Serotonin, 5HT1A (human recombinant) radioligand binding assay ([3H]-8-OH-DPAT); settings: human recombinant in HEK-293 cells
T2 construct: expressed in transfected cells; host or cells: HEK-293 cells
T2 sequence (P08908 1-422): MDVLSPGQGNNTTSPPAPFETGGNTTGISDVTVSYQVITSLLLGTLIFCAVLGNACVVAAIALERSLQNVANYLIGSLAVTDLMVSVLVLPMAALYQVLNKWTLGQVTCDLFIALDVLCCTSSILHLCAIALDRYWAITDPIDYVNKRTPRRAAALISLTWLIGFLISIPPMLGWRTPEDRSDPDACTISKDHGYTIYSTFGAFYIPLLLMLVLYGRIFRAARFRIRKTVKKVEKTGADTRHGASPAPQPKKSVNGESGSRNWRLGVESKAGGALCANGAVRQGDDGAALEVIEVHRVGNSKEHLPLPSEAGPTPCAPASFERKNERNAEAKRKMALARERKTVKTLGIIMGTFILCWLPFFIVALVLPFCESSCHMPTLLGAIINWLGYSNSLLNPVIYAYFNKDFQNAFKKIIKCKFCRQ
Protocol: The reactions were carried out in 50 mM TRIS-HCl (pH 7.4) containing 10 mM MgSO4, 0.5 mM EDTA and 0.1% Ascorbic acid at room temperature for 1 hour. The reaction was terminated by rapid vacuum filtration onto glass fiber filters. Radioactivity trapped onto the filters was determined and compared to control values in order to ascertain any interactions of test compounds with the cloned serotonin-5HT1A binding site (Literature Reference: Hoyer, D. et al. Eur. Journal Pharmacol. 1985, 118, 13-23; Schoeffter, P. and Hoyer, D. Naunyn-Schmiedeberg's Arch. Pharmac. 1989, 340, 135-138)
as §1

Serotonin, 5HT2A (human) = Serotonin, 5HT2A (human) (Homo sapiens, UniProt P28223); assay: Serotonin, 5HT2A (human) radioligand binding assay ([3H]-Ketanserin); settings: human cortex
Serotonin, 5HT2A (human), sequence (P28223 whole entry): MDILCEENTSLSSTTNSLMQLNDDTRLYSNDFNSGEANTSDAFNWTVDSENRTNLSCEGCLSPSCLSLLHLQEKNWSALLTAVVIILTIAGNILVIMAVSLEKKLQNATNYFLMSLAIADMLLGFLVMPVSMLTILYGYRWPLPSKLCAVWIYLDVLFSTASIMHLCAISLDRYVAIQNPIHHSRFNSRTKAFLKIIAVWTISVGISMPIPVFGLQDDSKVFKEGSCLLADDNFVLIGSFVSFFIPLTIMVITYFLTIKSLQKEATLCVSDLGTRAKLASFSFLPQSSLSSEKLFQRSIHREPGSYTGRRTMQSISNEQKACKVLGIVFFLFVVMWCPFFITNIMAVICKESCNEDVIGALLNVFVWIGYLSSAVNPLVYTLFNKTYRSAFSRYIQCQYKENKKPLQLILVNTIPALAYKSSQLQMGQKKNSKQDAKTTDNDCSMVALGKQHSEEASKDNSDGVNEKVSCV
Protocol: The reactions were carried out in 50 mM TRIS-HCl (pH 7.6) at room temperature for 90 minutes. The reaction was terminated by rapid vacuum filtration onto glass fiber filters. Radioactivity trapped onto the filters was determined and compared to control values in order to ascertain any interactions of test compounds with the serotonin-5HT2A binding site (Literature Reference: Leysen, J. E. et al. Mol. Pharmacol. 1982, 21, 301-314; Martin, G. R. and Humphrey, P. P. A. Neuropharmacol. 1994, 33(3/4), 261-273.)
as §1

Row | IC50 [1] [nM] | Ki [1] [nM] | IC50 [2] [nM] | Ki [2] [nM] | IC50 (Serotonin, 5HT2A (human)) [nM] | Ki (Serotonin, 5HT2A (human)) [nM] | SMILES
1 | 72.9 | 17 | 28 | 16 | 253 | 147 | O=C1CCc2ccc(C(=O)OCCCN3CCN(c4cccc(Cl)c4Cl)CC3)cc2N1 [Compound 24b, 3-(4-(2,3-Dichlorophenyl)piperazin-1-yl)propyl 2-oxo-1,2,3,4-tetrahydroquinoline-7-carboxylate hydrochloride]
2 | 5.83 | 1.69 | 6.61 | 3.93 | 456 | 239 | CCOC(=O)CCCOc1ccccc1N1CCN(CCCCOc2ccc3c(c2)NC(=O)CC3)CC1 [Compound 9a, Ethyl 4-(2-(4-(4-(2-oxo-1,2,3,4-tetrahydroquinolin-7-yloxy)butyl)piperazin-1-yl)phenoxy)butanoat hydrochloride]

Row | SMILES | IC50 [1] [nM] | Ki [1] [nM] | IC50 [2] [nM] | Ki [2] [nM] | IC50 (Serotonin, 5HT2A (human)) [nM] | Ki (Serotonin, 5HT2A (human)) [nM]
3 | O=C1CCc2ccc(COC(=O)CCCN3CCN(c4cccc(Cl)c4Cl)CC3)cc2N1 [Compound 39d, (2-Oxo-1,2,3,4-tetrahydroquinolin-7-yl)methyl 4-(4-(2,3-dichlorophenyl)piperazin-1-yl)butanoate] | 54.7 | 12.8 | 85 | 48.5 | 313 | 171
